# Data reported in patent publication US7741064B2, “Materials and methods relating to G-protein coupled receptor oligomers” (The University Court of the University of Glasgow, priority 2003, dated 2010).
# Residue numbers refer to the chain shown, from its start. Entries after “also recorded” stand apart in the source; their conditions may differ.
# Experiments:
# [1] = molecular target: Leu133Asp histamine H1 receptor-G11α fusion protein (Homo sapiens, UniProt P35367, L133D); conditions: HEK293 membranes; 1 mM histamine (FIG. 5(3))
# Procedure: (§1) [^35S]GTPγS binding experiments were initiated by the addition of membranes containing defined amounts of the fusion constructs (see Results for details) to an assay buffer (20 mM HEPES (pH 7.4), 3 mM MgCl2, 100 mM NaCl, 1 μM guanosine 5′-diphosphate, 0.2 mM ascorbic acid, 50 nCi [^35S]GTPγS) containing the indicated concentrations of receptor ligands. Non-specific binding was determined in the same conditions but in the presence of 100 μM GTPγS. Reactions were incubated for 15 min at 30° C. and were terminated by the addition of 0.5 ml of ice cold buffer, containing 20 mM HEPES (pH 7.4), 3 mM MgCl2 and 100 mM NaCl.
# (§2) Finally, the immunocomplexes were washed twice with solubilization buffer, and bound [^35S]GTPγS measured by liquid-scintillation spectrometry.
# [2] = molecular target: co-expressed histamine H1 receptor-Gly208AlaG11α + Leu133Asp histamine H1 receptor-G11α (Homo sapiens, UniProt P35367, L133D); conditions: HEK293 membranes; two mutants co-expressed; 1 mM histamine (FIG. 5(4))
# Procedure: as §1, §2
# [3] = molecular target: histamine H1 receptor-Gly208Ala G11α fusion protein (UniProt P21278+P35367, G208A); conditions: HEK293 membranes; 1 mM histamine (FIG. 5(2))
# Procedure: as §1, §2
# [4] = molecular target: wild type histamine H1 receptor-G11α fusion protein (Homo sapiens, UniProt P35367); conditions: HEK293 membranes; 1 mM histamine (FIG. 5(1))
# Procedure: as §1, §2
# [5] = molecular target: T1, Leu133Asp histamine H1 receptor-G11α co-expressed with α1b-adrenoceptor-Gly208Ala G11α (UniProt P18841+P35367, L133D); test: [Ca2+]i imaging in EF88 cells; assay type: cell-based; conditions: phenylephrine 10 μM, histamine 1 mM (FIG. 7A)
# T1 construct: the full length c-myc-tagged α1b-adrenoceptor-G11α fusion protein; expressed in transfected cells; host or cells: EF88 mouse embryo fibroblasts (Gqα/G11α double knock-out)
# Procedure: EF88 cells were grown in DMEM supplemented with 10% (v/v) heat inactivated foetal bovine serum and L-glutamine (1 mM) in a 95% air and 5% CO2 atmosphere at 37° C. A portion of the cells harvested during trypsinization were plated on to glass coverslips and after a 24 h growth period they were transfected using LipofectAMINE (Life Technologies Inc.) according to the manufacturers' instructions. After 3 h cells were washed twice with OPTIMEM 1 and then cultured in DMEM growth medium for a further 24 h. A total of 3 μg of pCDNA3 containing the relevant cDNA species were used to transfect each coverslip. Transfected EF88 cells were loaded with the Ca^2+-sensitive dye Fura-2 by incubation (15-20 min, 37° C.) under reduced light in DMEM growth medium containing the dye's membrane-permanent acetoxymethylester form (1.5 μM).
# [6] = molecular target: T2, Leu151Aspα1b-adrenoceptor-G11α co-expressed with histamine H1 receptor-Gly208Ala G11α (UniProt P18841+P35367, L151D); assay type: cell-based; conditions: EF88 cells; phenylephrine 10 μM, histamine 1 mM (FIG. 7B)
# T2 construct: the full length c-myc-tagged α1b-adrenoceptor-G11α fusion protein; expressed in transfected cells; host or cells: EF88 mouse embryo fibroblasts (Gqα/G11α double knock-out)
# [7] = molecular target: histamine H1 receptor-G11α fusion co-expressed with isolated Leu151Asp α1b-adrenoceptor (UniProt P21278+P35367); conditions: in comparison to membranes expressing the same level of only the histamine H1 receptor-G11α fusion; 1 mM histamine (FIG. 12A)
# [8] = molecular target: histamine H1 receptor-G11α co-transfected with Leu151Asp α1b-adrenoceptor (UniProt P21278+P35367); conditions: EF88 cells; 1 mM histamine; versus histamine H1 receptor-G11α alone (FIG. 12B)
# [9] = molecular target: T3, wild type α1b-adrenoceptor-G11α fusion protein (Mesocricetus auratus, UniProt P18841); test: [35S]GTPγS binding, membranes of HEK293 cells; assay type: biochemical; conditions: 10 μM phenylephrine (FIG. 4A)
# T3 construct: the full length c-myc-tagged α1b-adrenoceptor-G11α fusion protein; expressed in transfected cells; host or cells: HEK293 (membranes)
# T3 sequence (P18841 1-515): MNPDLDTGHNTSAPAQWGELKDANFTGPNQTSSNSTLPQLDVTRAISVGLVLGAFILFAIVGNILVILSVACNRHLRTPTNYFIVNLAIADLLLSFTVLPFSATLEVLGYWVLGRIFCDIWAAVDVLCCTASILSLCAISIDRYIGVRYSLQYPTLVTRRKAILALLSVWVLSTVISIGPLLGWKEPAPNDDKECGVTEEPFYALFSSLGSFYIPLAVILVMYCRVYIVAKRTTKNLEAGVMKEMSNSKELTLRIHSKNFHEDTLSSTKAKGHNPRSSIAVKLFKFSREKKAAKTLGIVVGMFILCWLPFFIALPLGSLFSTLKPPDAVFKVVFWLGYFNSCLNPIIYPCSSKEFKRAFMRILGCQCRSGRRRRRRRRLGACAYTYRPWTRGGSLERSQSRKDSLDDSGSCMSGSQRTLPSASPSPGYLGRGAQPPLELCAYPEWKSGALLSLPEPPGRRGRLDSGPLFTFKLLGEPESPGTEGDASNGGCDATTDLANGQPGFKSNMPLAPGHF
# Procedure: (§3) [^35S]GTPγS binding experiments were initiated by the addition of membranes containing defined amounts of the fusion constructs (see Results for details) to an assay buffer (20 mM HEPES (pH 7.4), 3 mM MgCl2, 100 mM NaCl, 1 μM guanosine 5′-diphosphate, 0.2 mM ascorbic acid, 50 nCi [^35S]GTPγS) containing the indicated concentrations of receptor ligands. Non-specific binding was determined in the same conditions but in the presence of 100 μM GTPγS. Reactions were incubated for 15 min at 30° C. and were terminated by the addition of 0.5 ml of ice cold buffer, containing 20 mM HEPES (pH 7.4), 3 mM MgCl2 and 100 mM NaCl. The samples were centrifuged at 16,000 g for 15 min at 4° C., and the resulting pellets were resuspended in solubilization buffer (100 mM Tris, 200 mM NaCl, 1 mM EDTA, 1.25% Nonidet P-40) plus 0.2% sodium dodecylsulfate. Samples were precleared with Pansorbin (Calbiochem), followed by immunoprecipitation with CQ antiserum (Mitchell et al., 1993).
# [10] = molecular target: T4, α1b-adrenoceptor-Gly208AlaG11α fusion protein (UniProt P18841+P21278, G208A); test: [35S]GTPγS binding, membranes of HEK293 cells; assay type: biochemical; conditions: 10 μM phenylephrine (FIG. 4A(2))
# T4 construct: the full length c-myc-tagged α1b-adrenoceptor-G11α fusion protein; expressed in transfected cells; host or cells: HEK293 (membranes)
# Procedure: as §3
# [11] = molecular target: T5, Leu151Aspα1b-adrenoceptor-G11α fusion protein (Mesocricetus auratus, UniProt P18841, L151D); test: [35S]GTPγS binding, membranes of HEK293 cells; assay type: biochemical; conditions: 10 μM phenylephrine (FIG. 4A(3))
# T5 construct: the full length c-myc-tagged α1b-adrenoceptor-G11α fusion protein; expressed in transfected cells; host or cells: HEK293 (membranes)
# T5 sequence (P18841 1-515 L151D): T3 sequence (P18841 1-515) with L151D
# Procedure: as §3
# [12] = molecular target: T6, co-expressed α1b-adrenoceptor-Gly208AlaG11α + Leu151Aspα1b-adrenoceptor-G11α (Mesocricetus auratus, UniProt P18841, L151D); test: [35S]GTPγS binding, membranes of HEK293 cells; assay type: biochemical; conditions: two non-functional mutants co-expressed, 10 μM phenylephrine (FIG. 4A(4))
# T6 construct: the full length c-myc-tagged α1b-adrenoceptor-G11α fusion protein; expressed in transfected cells; host or cells: HEK293 (membranes)
# Procedure: as §3
# c-myc-Nt-TM1α1b-G11α = test: [35S]GTPγS binding recovered in anti-c-myc immunoprecipitates, HEK293 cells; assay type: biochemical; conditions: 10 μM phenylephrine (FIG. 13B)
# Procedure: as §3
# T1 sequence (P35367 whole entry L133D, one chain of several, the tested form may be a part): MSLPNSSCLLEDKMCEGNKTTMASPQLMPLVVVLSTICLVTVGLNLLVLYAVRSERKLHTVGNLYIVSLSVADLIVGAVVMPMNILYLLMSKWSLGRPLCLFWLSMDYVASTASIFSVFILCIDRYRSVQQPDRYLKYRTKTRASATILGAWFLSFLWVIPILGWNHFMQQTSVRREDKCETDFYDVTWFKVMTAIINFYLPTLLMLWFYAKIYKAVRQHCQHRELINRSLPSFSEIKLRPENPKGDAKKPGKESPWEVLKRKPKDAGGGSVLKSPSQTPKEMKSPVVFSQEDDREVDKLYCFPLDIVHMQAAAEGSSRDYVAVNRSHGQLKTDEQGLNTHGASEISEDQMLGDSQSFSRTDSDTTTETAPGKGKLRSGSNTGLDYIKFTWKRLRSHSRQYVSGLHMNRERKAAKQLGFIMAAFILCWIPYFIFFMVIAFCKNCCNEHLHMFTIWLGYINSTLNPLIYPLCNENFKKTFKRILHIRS
# T1 sequence (P21278 whole entry partner, one chain of several, the tested form may be a part): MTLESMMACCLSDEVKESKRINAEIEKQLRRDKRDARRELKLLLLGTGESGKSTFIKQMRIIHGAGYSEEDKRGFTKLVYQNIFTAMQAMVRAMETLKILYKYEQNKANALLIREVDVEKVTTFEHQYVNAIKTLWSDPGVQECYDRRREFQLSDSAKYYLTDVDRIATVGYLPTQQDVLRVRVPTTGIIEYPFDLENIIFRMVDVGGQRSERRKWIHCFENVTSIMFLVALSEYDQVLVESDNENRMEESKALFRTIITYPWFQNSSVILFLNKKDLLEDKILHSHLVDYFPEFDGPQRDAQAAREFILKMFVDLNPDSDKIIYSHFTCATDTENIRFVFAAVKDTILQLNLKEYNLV
# T1 sequence (P21278 whole entry G208A partner, one chain of several, the tested form may be a part): as the sequence (P21278 whole entry partner, one chain of several, the tested form may be a part) above, with G208A counted along it
# T2 sequence (P21278 whole entry G208A, the tested form may be a part): as the sequence (P21278 whole entry partner, one chain of several, the tested form may be a part) above, with G208A counted along it
# T2 sequence (P18841 whole entry L151D, the tested form may be a part): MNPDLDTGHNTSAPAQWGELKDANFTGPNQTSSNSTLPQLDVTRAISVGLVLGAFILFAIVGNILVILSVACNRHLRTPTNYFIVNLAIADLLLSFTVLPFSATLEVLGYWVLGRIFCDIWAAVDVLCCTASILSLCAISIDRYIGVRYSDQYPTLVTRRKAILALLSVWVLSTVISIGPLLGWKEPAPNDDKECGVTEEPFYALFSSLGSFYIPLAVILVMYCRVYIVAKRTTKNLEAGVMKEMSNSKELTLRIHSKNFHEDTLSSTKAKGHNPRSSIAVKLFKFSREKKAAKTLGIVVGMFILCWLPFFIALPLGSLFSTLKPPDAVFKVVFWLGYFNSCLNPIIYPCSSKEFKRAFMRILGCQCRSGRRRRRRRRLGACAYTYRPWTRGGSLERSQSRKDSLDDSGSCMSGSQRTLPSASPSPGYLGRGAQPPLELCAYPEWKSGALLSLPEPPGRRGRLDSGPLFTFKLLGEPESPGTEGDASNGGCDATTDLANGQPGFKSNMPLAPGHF
# T2 sequence (P21278 whole entry, stated change not applied, the tested form may be a part): as the sequence (P21278 whole entry partner, one chain of several, the tested form may be a part) above
# T2 sequence (P35367 whole entry, the tested form may be a part): as the sequence (P35367 whole entry L133D, one chain of several, the tested form may be a part) above, with D133L counted along it
# T6 sequence (P21278 whole entry G208A partner, one chain of several, the tested form may be a part): as the sequence (P21278 whole entry partner, one chain of several, the tested form may be a part) above, with G208A counted along it
# T6 sequence (P18841 whole entry L151D, one chain of several, the tested form may be a part): as the sequence (P18841 whole entry L151D, the tested form may be a part) above
# T6 sequence (P21278 whole entry partner, one chain of several, the tested form may be a part): as the sequence (P21278 whole entry partner, one chain of several, the tested form may be a part) above
# Sequence of Leu133Asp histamine H1 receptor-G11α fusion protein (P35367 whole entry L133D, the tested form may be a part): as the sequence (P35367 whole entry L133D, one chain of several, the tested form may be a part) above
Compound,stimulation of [35S]GTPγS binding [1],agonist activation of the G protein ([35S]GTPγS binding) [2],stimulation of [35S]GTPγS binding [3],stimulation of [35S]GTPγS binding [4],elevation of intracellular [Ca2+] [5],elevation of intracellular [Ca2+] [6],histamine stimulation of [35S]GTPγS binding [7],histamine stimulation of intracellular [Ca2+] [8],stimulation of the binding of [35S]GTPγS [9],stimulation of [35S]GTPγS binding [10],stimulation of [35S]GTPγS binding [11],agonist-mediated binding of [35S]GTPγS [12],stimulation of [35S]GTPγS binding in anti-c-myc immunoprecipitates (c-myc-Nt-TM1α1b-G11α; co-expressed with the isolated α1b-adrenoceptor),[35S]GTPγS binding in response to agonist (c-myc-Nt-TM1α1b-G11α; construct expressed alone)
NCCc1c[nH]cn1 [histamine],absent,reconstituted agonist activation,absent,large stimulation,little or no change,caused elevation of intracellular [Ca^2+]; also recorded: elevation of intracellular calcium,significantly reduced,reduced markedly,,,,,,
CNC[C@H](O)c1cccc(O)c1 [phenylephrine],,,,,able to elevate intracellular [Ca^2+]; also recorded: elevation of intracellular calcium concentration,did not; also recorded: little or no change,,,large stimulation,essentially eliminated,unable to stimulate binding,reconstituted phenylephrine-mediated binding,did not result in significant stimulation,did not bind
